Measurements reported in patent publication US6716851B2, “Substituted 2-aryl-4-arylaminopyrimidines and analogs as activators or caspases and inducers of apoptosis and the use thereof” (Cytovia, Inc., priority 2000, dated 2004).

Columns and labels:
T-47D cells = experiment: Caspase cascade activation (N-(Ac-DEVD)-N'-ethoxycarbonyl-R110 fluorogenic substrate) in T-47D cells; type: cell-based, Human; details: 48 h incubation; for EC50: Homo sapiens, T47D, caspase activation potency, read-out: T47 EC50; for T47 Ratio 48 hr: caspase activity: ratio of net RFU of test compound to control
Protocol: (§1) Human breast cancer cell lines T-47D and ZR-75-1 were grown according to media component mixtures designated by American Type Culture Collection +10% FCS (Invitrogen Corporation, Life Technologies division), in a 5% CO2-95% humidity incubator at 37° C. T-47D and ZR-75-1 cells were maintained at a cell density between 50 and 80% confluency at a cell density of 0.1 to 0.6×10^6 cells/ml. Cells were harvested at 600× g and resuspended at 0.65×10^6 cells/ml into appropriate media +10% FCS. An aliquot of […] of cells was added to a well of a […] microtiter plate containing 2.5 μl of a 10% DMSO in RPMI-1640 media solution containing 0.16 to 100 μM of 4-(3-methoxyanilino)-2-(2-pyridinyl)-6-(trifluoromethyl)pyrimidine or other test compound (0.016 to 10 μM final). An aliquot of 22.5 μl of cells was added to a well of a 384-well microtiter plate containing 2.5 μl of a 10% DMSO in RPMI-1640 media solution without test compound as the control sample. The samples were mixed by agitation and then incubated at 37° C. for 48 h in a 5% CO2-95% humidity incubator. After incubation, the samples were removed from the incubator and 25 μl of a solution containing 14 μM of N-(Ac-DEVD)-N′-ethoxycarbonyl-R110 fluorogenic substrate (Cytovia, Inc.; WO99/18856), 20% sucrose (Sigma), 20 mM DTT (Sigma), 200 mM NaCl (Sigma), 40 mM Na PIPES buffer pH 7.2 (Sigma), and 500 μg/ml lysolecithin (Calbiochem) was added. The samples were mixed by agitation and incubated at room temperature. Using a fluorescent plate reader (Model SpectraMax Gemini, Molecular Devices), an initial reading (T=0) was made approximately 1-2 min after addition of the substrate solution, employing excitation at 485 nm and emission at 530 nm, to determine the background fluorescence of the control sample. After the 3 h incubation, the samples were read for fluorescence as above (T=3 h).
(§2) The Relative Fluorescence Unit values (RFU) were used to calculate the sample readings as follows:
(§3) RFU(T=3h)−Control RFU(T=0)=Net RFU(T=3h)
(§4) The activity of caspase cascade activation was determined by the ratio of the net RFU value for 4-(3-methoxyanilino)-2-(2-pyridinyl)-6-(trifluoromethyl)pyrimidine or other test compound to that of control samples. The EC50 (nM) was determined by a sigmoidal dose-response calculation (Prism 2.0, GraphPad Software Inc.).

ZR-75-1 cells = experiment: Caspase cascade activation (N-(Ac-DEVD)-N'-ethoxycarbonyl-R110 fluorogenic substrate) in ZR-75-1 cells; type: cell-based, Human; details: ZR-75-1, 48 h incubation; for EC50: Homo sapiens, caspase activation potency; for ZR Ratio 48 hr: caspase activity: ratio of net RFU of test compound to control
Protocol: as §1, §2, §3, §4

Row | Structure (SMILES) | EC50 (T-47D cells) | T47 Ratio 48 hr (T-47D cells) | EC50 (ZR-75-1 cells) | ZR Ratio 48 hr (ZR-75-1 cells)
1 | COc1cccc(Nc2nc(-c3ccc(C(F)(F)F)cn3)nc(C)c2Cl)c1 [Example 15, 4-(3-Methoxyanilino)-5-chloro-6-methyl-2-[5-(trifluoromethyl)-2-pyridinyl]pyrimidine] | > 5000 nM | 2.5 | > 5000 nM | 2.7
2 | COc1cccc(Nc2cc(C)nc(-c3ccccn3)n2)c1 [Example 16, 4-(3-Methoxyanilino)-6-methyl-2-(2-pyridinyl)pyrimidine] | 288 nM | 19.5 | 292 nM | 3.3
3 | COc1cccc(Nc2nc(-c3ccccn3)ncc2OC)c1 [Example 18, 4-(3-Methoxyanilino)-5-methoxy-2-(2-pyridinyl)pyrimidine] | > 5000 nM | 1.9 | 4900 nM | 7.8
4 | COc1cccc(Nc2cc(C(F)(F)F)nc(-c3cccnc3)n2)c1 [Example 19, 4-(3-Methoxyanilino)-2-(3-pyridinyl)-6-(trifluoromethyl)pyrimidine] | 471 nM | 16.7 | 214 nM | 8.9
5 | COCc1cc(Nc2cccc(OC)c2)nc(-c2cccc(C)c2)n1 [Example 20, 4-(3-Methoxyanilino)-6-(methoxymethyl)-2-(3-methylphenyl)pyrimidine] | > 5000 nM | 1.6 | > 5000 nM | 1.1
6 | COc1ccc(OC)c(Nc2cc(C)nc(-c3ccccn3)n2)c1 [Example 21, 4-(2,5-Dimethoxyanilino)-6-methyl-2-(2-pyridinyl)pyrimidine] | < 156 nM | 15.5 | < 156 nM | 12.0
7 | COc1cccc(Nc2cc(C)nc(-c3ccccn3)n2)c1OC [Example 22, 4-(2,3-Dimethoxyanilino)-6-methyl-2-(2-pyridinyl)pyrimidine] | > 5000 nM | 1.9 | 6050 nM | 3.5
8 | COc1ccc(OC)c(Nc2cc(C(F)(F)F)nc(-c3cccnc3)n2)c1 [Example 38, 4-(2,5-Dimethoxyanilino)-2-(3-pyridinyl)-6-(trifluoromethyl)pyrimidine] | 19 nM | 8.8 | 69 nM | 12.4
9 | COc1cccc(Nc2cc(C(F)(F)F)nc(-c3ccncc3)n2)c1 [Example 41, 4-(3-Methoxyanilino)-2-(4-pyridinyl)-6-(trifluoromethyl)pyrimidine] | 521 nM | 7.5 | > 5000 nM | 1.6
10 | COc1ccc(OC)c(Nc2cc(C(F)(F)F)nc(-c3ccncc3)n2)c1 [Example 42, 4-(2,5-Dimethoxyanilino)-2-(4-pyridinyl)-6-(trifluoromethyl)pyrimidine] | 43 nM | 5.8 | 145 nM | 2.5
11 | COCc1cc(Nc2cccc(OC)c2)nc(-c2csc(C)n2)n1 [Example 44, 4-(3-Methoxyanilino)-6-(methoxymethyl)-2-(2-methyl-1-3-thiazol-4-yl)pyrimidine] | > 5000 nM | 1.6 | > 5000 nM | 1.9
12 | COCc1cc(Nc2cc(OC)ccc2OC)nc(-c2csc(C)n2)n1 [Example 45, 4-(2,5-Dimethoxyanilino)-6-(methoxymethyl)-2-(2-methyl-1-3-thiazol-4-yl)pyrimidine] | 329 nM | 21.6 | 387 nM | 17.3
13 | COc1cccc(Nc2cc(N3CCOCC3)nc(-c3ccccc3)n2)c1 [Example 46, 6-Morpholino-4-(3-methoxyanilino)-2-phenyl-pyrimidine] | > 5000 nM | 1.5 | > 5000 nM | 1.4
14 | COc1ccc(Cl)c(Nc2cc(C(F)(F)F)nc(-c3cccnc3)n2)c1 [Example 50, 4-(2-Chloro-5-methoxyanilino)-2-(3-pyridinyl)-6-(trifluoromethyl)pyrimidine] | 172 nM | 10 | 322 nM | 5.3
15 | COc1ccc(C)c(Nc2cc(C(F)(F)F)nc(-c3cccnc3)n2)c1 [Example 51, 4-(5-Methoxy-2-methylanilino)-2-(3-pyridinyl)-6-(trifluoromethyl)pyrimidine] | 29 nM | 11 | 56 nM | 5.9
16 | COc1ccc(Cl)c(Nc2cc(C)nc(-c3ccccn3)n2)c1 [Example 52, 4-(2-Chloro-5-methoxyanilino)-6-methyl-2-(2-pyridinyl)pyrimidine] | 108 nM | 20.9 | 98 nM | 7.2
17 | COc1ccc(C)c(Nc2cc(C)nc(-c3ccccn3)n2)c1 [Example 53, 4-(5-Methoxy-2-methylanilino)-6-methyl-2-(2-pyridinyl)pyrimidine] | 115 nM | 20.4 | 599 nM | 6.6
18 | COc1ccc(Cl)c(Nc2cc(C(F)(F)F)nc(-c3ccncc3)n2)c1 [Example 54, 4-(2-Chloro-5-methoxyanilino)-2-(4-pyridinyl)-6-(trifluoromethyl)pyrimidine] | 99 nM | 10.5 | 101 nM | 5.9
19 | COc1ccc(C)c(Nc2cc(C(F)(F)F)nc(-c3ccncc3)n2)c1 [Example 55, 4-(5-Methoxy-2-methylanilino)-2-(4-pyridinyl)-6-(trifluoromethyl)pyrimidine] | 21 nM | 8.4 | 18 nM | 7.1
20 | Cn1cc(Br)c(-c2cccc(Nc3cc(C(F)(F)F)nc(-c4cccnc4)n3)c2)n1 [Example 58, 4-[3-(4-Bromo-1-methyl-1H-pyrazol-3-yl)anilino]-2-(3-pyridinyl)-6-(trifluoromethyl)pyrimidine] | > 5000 nM | 1.5 | > 5000 nM | 1.1
21 | COc1ccc(OC)c(Nc2cc(C(F)(F)F)nc(-c3cnccn3)n2)c1 [Example 76, 4-(2,5-Dimethoxyanilino)-2-(2-pyrazinyl)-6-(trifluoromethyl)pyrimidine] | < 150 nM | 8.5 | – | –
22 | COc1ccc(Cl)c(Nc2cc(C(F)(F)F)nc(-c3cnccn3)n2)c1 [Example 82, 4-(2-Chloro-5-methoxyanilino)-2-(2-pyrazinyl)-6-(trifluoromethyl)pyrimidine] | 254 nM | 15.3 | – | –
23 | Oc1ccc(Cl)c(Nc2cc(C(F)(F)F)nc(-c3cnccn3)n2)c1 [Example 194, 4-(2-Chloro-5-hydroxyanilino)-2-(2-pyrazinyl)-6-trifluoromethylpyrimidine] | 107 nM | 11.7 | – | –
24 | COc1cc(Nc2cc(C(F)(F)F)nc(-c3ccccn3)n2)cc(OC)c1 [Example 195, 4-(3,5-Dimethoxyanilino)-2-(2-pyridinyl)-6-trifluoromethylpyrimidine] | 20 nM | 8.4 | – | –
25 | Cc1ccc(C)c(Nc2cc(C(F)(F)F)nc(-c3cnccn3)n2)c1 [Example 196, 4-(2,5-Dimethylanilino)-2-(2-pyrazinyl)-6-trifluoromethylpyrimidine] | 527 nM | 11.3 | – | –
